# From ChEMBL document CHEMBL1132349, “Lead generation using pharmacophore mapping and three-dimensional database searching: application to muscarinic M(3) receptor antagonists” (J Med Chem, 1999)
# Molecular target: Muscarinic acetylcholine receptor M3 (Cavia porcellus, UniProt Q8VH26)
# Experiment: The compound was tested for antagonistic activity against Muscarinic acetylcholine receptor M3 in guinea pig trachea
# Format: functional
# Conditions: read-out: pA2 (converted)
# Sequence of Muscarinic acetylcholine receptor M3 (Q8VH26 whole entry): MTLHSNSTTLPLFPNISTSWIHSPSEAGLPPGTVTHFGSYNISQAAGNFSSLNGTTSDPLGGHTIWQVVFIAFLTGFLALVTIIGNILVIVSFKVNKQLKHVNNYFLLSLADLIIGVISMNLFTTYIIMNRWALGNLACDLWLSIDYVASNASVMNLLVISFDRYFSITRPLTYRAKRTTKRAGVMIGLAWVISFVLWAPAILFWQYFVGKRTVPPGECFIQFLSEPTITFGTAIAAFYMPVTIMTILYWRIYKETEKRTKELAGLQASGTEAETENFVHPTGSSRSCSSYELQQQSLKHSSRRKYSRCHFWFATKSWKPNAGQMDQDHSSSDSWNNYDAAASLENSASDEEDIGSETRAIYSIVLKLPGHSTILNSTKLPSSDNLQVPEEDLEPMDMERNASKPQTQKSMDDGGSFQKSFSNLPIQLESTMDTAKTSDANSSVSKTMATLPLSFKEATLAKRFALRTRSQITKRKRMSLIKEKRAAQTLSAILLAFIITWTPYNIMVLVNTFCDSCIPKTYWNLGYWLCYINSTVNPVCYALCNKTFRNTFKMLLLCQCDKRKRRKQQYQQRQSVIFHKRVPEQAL
row,Kb,Compound
1,214 nM,CCN(CC)CCOc1ccccc1C(=O)Cc1ccccc1
2,2880 nM,O=C(Nc1ccccc1)OC1CCCCC1CN1CCOCC1 (stereo not drawn)
3,14800 nM,CCCOc1ccccc1C(=O)NC1CCCCC1CN1CCCCC1 (stereo not drawn)
